Reference: ChEMBL document CHEMBL1201862, “PubChem BioAssay data set” (2004)
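Cultured in 96-well plates, cells were exposed to test compound for 48 hours across five concentrations. At the GI50, growth is halved.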 The source made the active and inactive calls. No stated cut-off is given here; in the data, active = GI50 up to about 1.1 µM and inactive = higher.

Key:
Test in all cases: growth of human tumour cells (NCI), 48 h
UACC-257 = tested on: UACC-257
UACC-62 = tested on: UACC-62
M19-MEL = tested on: M19-MEL
RPMI-8226 = tested on: RPMI-8226
LOX IMVI = tested on: LOX IMVI
SF-295 = tested on: SF-295
HCT-15 = tested on: HCT-15
M14 = tested on: M14
HOP-18 = tested on: HOP-18
SF-268 = tested on: SF-268
A498 = tested on: A498
K562 = tested on: K562
HOP-92 = tested on: HOP-92
COLO 205 = tested on: COLO 205
HL-60 = tested on: HL-60
SNB-78 = tested on: SNB-78
HOP-62 = tested on: HOP-62
CAKI-1 = tested on: CAKI-1
KM12 = tested on: KM12
IGROV-1 = tested on: IGROV-1
SK-MEL-5 = tested on: SK-MEL-5
RXF 393 = tested on: RXF 393
SK-MEL-2 = tested on: SK-MEL-2
DMS-273 = tested on: DMS-273
OVCAR-5 = tested on: OVCAR-5
CCRF-CEM = tested on: CCRF-CEM
OVCAR-4 = tested on: OVCAR-4
KM-20L2 = tested on: KM-20L2
DLD-1 = tested on: DLD-1
UO-31 = tested on: UO-31
NCI-H522 = tested on: NCI-H522
A549 = tested on: A549
SN12C = tested on: SN12C
ACHN = tested on: ACHN
Malme-3M = tested on: Malme-3M
DMS-114 = tested on: DMS-114
NCI-H23 = tested on: NCI-H23
LXFL 529 = tested on: LXFL 529
RXF 631 = tested on: RXF 631
786-0 = tested on: 786-0
NCI-H460 = tested on: NCI-H460
XF498 = tested on: XF498
MOLT-4 = tested on: MOLT-4
OVCAR-8 = tested on: OVCAR-8
SW-620 = tested on: SW-620
HCC 2998 = tested on: HCC 2998
SNB-19 = tested on: SNB-19
TK-10 = tested on: TK-10
OVCAR-3 = tested on: OVCAR-3
SK-MEL-28 = tested on: SK-MEL-28
SF-539 = tested on: SF-539
NCI-H226 = tested on: NCI-H226
SNB-75 = tested on: SNB-75
U-251 = tested on: U-251
SK-OV-3 = tested on: SK-OV-3
EKVX = tested on: EKVX
HCT-116 = tested on: HCT-116
MDA-N = tested on: MDA-N
T47D = tested on: T47D
NCI/ADR-RES = tested on: NCI/ADR-RES
MDA-MB-231 = tested on: MDA-MB-231
PC-3 = tested on: PC-3
SR = tested on: SR
DU-145 = tested on: DU-145
HT-29 = tested on: HT-29
Hs-578T = tested on: Hs-578T
MCF7 = tested on: MCF7
BT-549 = tested on: BT-549

For `Cc1nc(Nc2ccc(Cl)cc2)sc1C(=O)NNC(=S)NN`, the GI50 (UACC-257) was 13.2 µM (inactive), the GI50 (UACC-62) was 17.2 µM (inactive) and the GI50 (M19-MEL) was 22.3 µM (inactive). The GI50 (RPMI-8226) was 29 µM (inactive), the GI50 (LOX IMVI) was 14.5 µM (inactive) and the GI50 (SF-295) was 17.5 µM (inactive). The GI50 (HCT-15) was 20.4 µM, the GI50 (M14) was 19.7 µM (inactive) and the GI50 (HOP-18) was 18.3 µM (inactive). The GI50 (SF-268) was 21.1 µM (inactive), the GI50 (A498) was 15.3 µM (inactive) and the GI50 (K562) was 27.3 µM (inactive). For the same compound, the GI50 (HOP-92) was 26.1 µM (inactive), the GI50 (COLO 205) was 21.6 µM (inactive) and the GI50 (HL-60) was 21.4 µM (inactive). The GI50 (SNB-78) was 19.5 µM (inactive), the GI50 (HOP-62) was 18.8 µM (inactive) and the GI50 (CAKI-1) was 24.7 µM (inactive). For the same compound, the GI50 (KM12) was 20.1 µM (inactive), the GI50 (IGROV-1) was 25.9 µM (inactive) and the GI50 (SK-MEL-5) was 18.3 µM (inactive). For the same compound, the GI50 (RXF 393) was 12.7 µM (inactive), the GI50 (SK-MEL-2) was 18.5 µM (inactive) and the GI50 (DMS-273) was 18.6 µM (inactive). For the same compound, the GI50 (OVCAR-5) was 16.8 µM (inactive), the GI50 (CCRF-CEM) was 29.1 µM (inactive) and the GI50 (OVCAR-4) was 17.7 µM (inactive). The GI50 (KM-20L2) was 17.5 µM (inactive), the GI50 (DLD-1) was 16.6 µM (inactive) and the GI50 (UO-31) was 15.8 µM (inactive). For the same compound, the GI50 (NCI-H522) was 16.6 µM (inactive), the GI50 (A549) was 19 µM (inactive) and the GI50 (SN12C) was 18.1 µM (inactive). For the same compound, the GI50 (ACHN) was 19.5 µM (inactive), the GI50 (Malme-3M) was 19.7 µM (inactive) and the GI50 (DMS-114) was 17.5 µM (inactive). The GI50 (NCI-H23) was 17.6 µM (inactive), the GI50 (LXFL 529) was 20 µM (inactive) and the GI50 (RXF 631) was 19.5 µM (inactive). The GI50 (786-0) was 16.6 µM (inactive), the GI50 (NCI-H460) was 19.7 µM (inactive) and the GI50 (XF498) was 21.2 µM (inactive). The GI50 (MOLT-4) was 21.5 µM (inactive), the GI50 (OVCAR-8) was 21.3 µM (inactive) and the GI50 (SW-620) was 19.5 µM (inactive). For the same compound, the GI50 (HCC 2998) was 15.5 µM (inactive), the GI50 (SNB-19) was 18.9 µM (inactive) and the GI50 (TK-10) was 20.9 µM (inactive). The GI50 (OVCAR-3) was 19.3 µM (inactive), the GI50 (SK-MEL-28) was 19.3 µM (inactive) and the GI50 (SF-539) was 17.5 µM (inactive). The GI50 (NCI-H226) was 19.1 µM (inactive), the GI50 (SNB-75) was 32.7 µM (inactive) and the GI50 (U-251) was 17.5 µM (inactive). The GI50 (SK-OV-3) was 27.4 µM (inactive), the GI50 (EKVX) was 16.9 µM (inactive) and the GI50 (HCT-116) was 17 µM (inactive).
With `CCCCCCCCCCCCC(O)C1CCC(C(O)CCCCC(O)CCCCCC2CC(CC(C)=O)C(=O)O2)O1` (configuration not stated) the GI50 (UACC-257) was 0.0204 µM (active), the GI50 (UACC-62) was 1.7 µM (inactive) and the GI50 (M19-MEL) was 2.45 µM (inactive). The GI50 (LOX IMVI) was 1.4 µM (inactive), the GI50 (SF-295) was 0.133 µM (active) and the GI50 (HCT-15) was 3.35 µM. The GI50 (M14) was 7.29 µM (inactive), the GI50 (HOP-18) was 11.3 µM (inactive) and the GI50 (SF-268) was 3.33 µM (inactive). The GI50 (A498) was 4.52 µM (inactive), the GI50 (K562) was 0.0186 µM (active) and the GI50 (HOP-92) was 0.986 µM (active). The GI50 (MDA-N) was 1.6 µM (inactive), the GI50 (COLO 205) was 3.19 µM (inactive) and the GI50 (SNB-78) was 12.5 µM (inactive). The GI50 (HOP-62) was 4.58 µM (inactive), the GI50 (T47D) was 2.77 µM (inactive) and the GI50 (CAKI-1) was 8.87 µM (inactive). For the same compound, the GI50 (KM12) was 1.63 µM (inactive), the GI50 (IGROV-1) was 5.78 µM (inactive) and the GI50 (SK-MEL-5) was 0.0931 µM (active). The GI50 (RXF 393) was 4.29 µM (inactive), the GI50 (NCI/ADR-RES) was 0.29 µM (active) and the GI50 (SK-MEL-2) was 4.95 µM (inactive). The GI50 (DMS-273) was 2.21 µM (inactive), the GI50 (OVCAR-5) was 8.75 µM (inactive) and the GI50 (MDA-MB-231) was 2.54 µM (inactive). The GI50 (CCRF-CEM) was 1.43 µM (inactive), the GI50 (OVCAR-4) was 1.44 µM (inactive) and the GI50 (KM-20L2) was 4.29 µM (inactive). For the same compound, the GI50 (PC-3) was 1.68 µM (inactive), the GI50 (DLD-1) was 6.21 µM (inactive) and the GI50 (UO-31) was 2.27 µM (inactive). For the same compound, the GI50 (NCI-H522) was 4.15 µM (inactive), the GI50 (SR) was 1.34 µM (inactive) and the GI50 (DU-145) was 3.86 µM (inactive). The GI50 (A549) was 3.21 µM (inactive), the GI50 (SN12C) was 4.83 µM (inactive) and the GI50 (ACHN) was 7.85 µM (inactive). The GI50 (Malme-3M) was 0.94 µM (active), the GI50 (DMS-114) was < 0.01 µM (active) and the GI50 (NCI-H23) was < 0.01 µM (active). The GI50 (LXFL 529) was 2.81 µM (inactive), the GI50 (HT-29) was 3.5 µM (inactive) and the GI50 (RXF 631) was 3.17 µM (inactive). The GI50 (786-0) was 6.79 µM (inactive), the GI50 (NCI-H460) was 3.77 µM (inactive) and the GI50 (XF498) was 1.82 µM (inactive). The GI50 (OVCAR-8) was 3.44 µM (inactive), the GI50 (SW-620) was 5.87 µM (inactive) and the GI50 (HCC 2998) was 8.18 µM (inactive). For the same compound, the GI50 (SNB-19) was 2.33 µM (inactive), the GI50 (Hs-578T) was 1.69 µM (inactive) and the GI50 (TK-10) was 4.99 µM (inactive). The GI50 (OVCAR-3) was 2.09 µM (inactive), the GI50 (SK-MEL-28) was 4.7 µM (inactive) and the GI50 (SF-539) was 3.9 µM (inactive). For the same compound, the GI50 (MCF7) was 1.01 µM (active), the GI50 (NCI-H226) was 1.82 µM (inactive) and the GI50 (SNB-75) was 3.72 µM (inactive). The GI50 (U-251) was 3.11 µM (inactive), the GI50 (SK-OV-3) was 11.9 µM (inactive) and the GI50 (EKVX) was 3.25 µM (inactive). The GI50 (BT-549) was 2.79 µM (inactive) and the GI50 (HCT-116) was 0.175 µM (active).
